Reference: PMC8512812, “Clerodane Diterpenoids from an Edible Plant Justicia insularis: Discovery, Cytotoxicity, and Apoptosis Induction in Human Ovarian Cancer Cells” (Molecules, 2021)
Where two headings read alike, the source gives them in different places.

Tests used:
OVCAR-4 cells = assay: Sulforhodamine B (SRB) cell growth inhibitory assay; format: cell-based, human
Procedure: (§1) The human ovarian cancer cell lines and normal human ovarian surface epithelial (HOE) cells were used in this study. Ovarian cancer cell lines (OVCAR-4 and OVCAR-8) were products of American tissue culture collection (ATCC). The HOE cells were purchased from Applied Biological Materials (ABM) Inc. (Vancouver, BC, Canada). The Rosewell Park Memorial Institute (RPMI 1640, Lonza) medium was used in the culturing of OVCAR-4, OVCAR-8, and HOE cells. The medium was supplemented with 2 mM glutamine, 10% foetal bovine serum (FBS), and 50 µg/mL penicillin streptomycin. These cells were incubated in a standard humidified incubator) at 37 °C, 5% carbon dioxide (CO2) conditions.
(§2) Sulforhodamine B (SRB) assay was used to determine the inhibition of cell proliferation by the studied compounds and plant extracts. Plant extracts/fractions (100 mg/mL) and pure compounds (20 mM) were prepared in DMSO. The 0.2% DMSO in growth media was added to the cells as vehicle-treated cells (negative control) while carboplatin was used as positive control. In the SRB assay, OVCAR-4, OVCAR-8, and HOE cells were seeded in 80 µL growth medium per each well in 96 well plates. OVCAR-4 and HOE were seeded at a density of 5000 cells per well while OVCAR-8 was seeded at a density of 2000 cells per well. The seeded plates were incubated for 24 h, after which 20 μL of plant extracts and natural compounds 1000 µg/mL and 200 µM (and their serial two-fold dilutions), respectively, were added at the indicated concentrations. The cell cultures were incubated at 37 °C under 5% CO2 for 72 h in a humidified atmosphere.
(§3) After 72 h, the medium was decanted, and the cells fixed with 0.1 mL of 10% TCA on ice for 30 min before drying. The cells were stained with 0.4% SRB, washed with 1% acetic acid three times and dried. Then, 0.1 mL of Tris-base (10 mM) was added to the plates to solubilise the protein-bound SRB dye. The absorbance at 570 nm was measured using a spectroscopic plate reader (Multi-mode microplate reader BioTEK Synergy 2, Winooski, VT, USA). The data were analysed by non-linear regression to fit a 4-parameter sigmoidal dose–response curve to determine IC50 values using GraphPad PRISM 6.0 software, Inc. (San Diego, CA, USA).
(§4) The IC50s were obtained from at least three repeated experiments. The mean IC50 was calculated, and the standard error of mean (SEM) was determined. Furthermore, a one way analysis of variance (ANOVA) and student t test were used to test if the difference in the mean of control and treatments and mean of treatment at different concentration were significant. A post hoc Dunnett test was used to determine which of the treatments was significant to the control while a Tukey test was used to determine which of the concentrations of a particular treatment were significant using GraphPad prism 6.

OVCAR-8 cells [1] = assay: as above; format: cell-based, human; settings: for SI against OVCAR-8: ratio of IC50 against HOE cells to IC50 against OVCAR-8
Procedure: as §1, §2, §3, §4

[2] = system: HOE cells (normal human ovarian surface epithelial); assay: as above; format: cell-based; settings: for IC50: SRB, 72 h; for cytotoxic activity against HOE cells: compared with OVCAR-4 and OVCAR-8
Procedure: as §1, §2, §3, §4

[3] = system: OVCAR-4 and OVCAR-8 cells; assay: SRB cell growth assay, result stated jointly for both cancer lines; format: cell-based, human; settings: span over the two cell lines, read-out: IC50 against OVCAR-4 and OVCAR-8 cells
Procedure: as §1, §2, §3, §4

[4] = system: caspase 3/7 in OVCAR-4 cells; assay: Caspase-Glo 3/7 activity assay; format: cell-based, human; settings: 10, 20 and/or 30 μM, 48 h, vs control, one-way ANOVA
Procedure: (§5) Caspase 3/7 activities was measured using assay kits caspase-Glo 3/7 (Promega Corp., Madison, WI, USA) on a 96-well microplate. Briefly, the cells (OVCAR-4 and OVCAR-8) were seeded in 96 well plates at a cell density of 5000 cells/well in 80 μL growth media and exposed to 10, 20 and/or 30 μM of the natural compounds after 24 h incubation. After 48 h exposure to compound treatments, 25 μL of Caspase 3/7 Glo-reagent was added, and the cells were incubated in the dark at room temperature for 30 min on a gentle rocker. The luminescence was measured at […] by a BioTEK Synergy microplate reader (USA). A similar procedure was followed for caspase 8 and caspase 9 activity.

[5] = system: caspase 3/7 in OVCAR-8 cells; assay: Caspase-Glo 3/7 activity assay; format: cell-based, human; settings: 10, 20 and/or 30 μM, 48 h, vs control, one-way ANOVA
Procedure: as §5

[6] = system: caspase 8 in OVCAR-8 cells; assay: Caspase-Glo 8 activity assay; format: cell-based, human
Procedure: as §5

[7] = system: caspase 9 in OVCAR-8 cells; assay: Caspase-Glo 9 activity assay; format: cell-based, human
Procedure: as §5

OVCAR-8 cells [8] = assay: Annexin V-FITC / propidium iodide flow cytometry; format: cell-based, human; settings: 5, 10, and 20 µM, 48 h treatment
Procedure: The in vitro method of fluorescence-activated cell sorting (FACS) by Annexin V and propidium iodide (PI) staining was used to detect the change of cell population as reported. OVCAR-8 cells were seeded in 12 well plates at a density of 2 × 10^5 cells per well in 1 mL of growth media and incubated for 24 h before treatment with the tested compound and positive control. After treatment for 48 h, media were decanted into 15 mL tubes, and cell pellets were collected into the same tubes by trypsinisation, the cells were centrifuged at 150× g for 3 min and re-suspended into 1 mL growth media, which was transferred into sterile 2 mL Eppendorf tube, centrifuged at 300× g for 5 min at 4 °C. The media were aspirated, and the pellet was washed in cold PBS. The cells were centrifuged under the same conditions and the supernatant aspirated. Cells were washed in 500 µL annexin-V binding buffer and centrifuged at 300× g for 10 min, annexin-V binding buffer was aspirated, and the cell pellet was treated with 10 µL of annexin V-FITC in 100 µL of binding buffer. The cells were thoroughly mixed and incubated in the dark at room temperature for 15 min. After incubation, cells were washed in binding buffer and centrifuged at 300× g for 10 min. The buffer was aspirated, and cells were suspended in 500 µL binding buffer and subsequently 5 µL of PI was added for flow cytometry analysis.

[9] = Thermal stability (GC-MS conditions; heating followed by HPLC); format: physicochemical
Procedure: Briefly, 1.0–2.0 mg of the bioactive fractions and isolated compounds of J. insularis were dissolved in 200 μL of ethyl acetate and sonicated at <40 °C for 5 min. 1–2 μL of the solution was subsequently injected into gas chromatography mass spectrometry (GC-MS) system consisting of an Agilent 7890 coupled to Agilent MS model 5975C MSD (Agilent Technologies, Cold Spring, NY, USA). The gas chromatography started at 60 °C for 2 min and increased to 300 °C at the rate of 10 °C/min, which was held at 300 °C for 4 min at a constant helium pressure (10 psi). The mass spectra data were acquired in the scan mode in m/z range 40–1000.
The molecular formula of 1 was determined as C20H30O3 based on the observed molar mass of compound 1 (found, 318.2123 Da) by LC-HR-MS (Figure S4). […] The other observed compounds, 1a and 1b (Figure S5), were determined to be the thermal degradation products of compound 1 due to the presence of a γ–hydroxy unsaturated 5-membered lactone moiety (Figure 1) under high temperature conditions (60 °C–300 °C) for 30 min of GC-MS. […] Furthermore, the percentage of compound 1 in organic extracts was determined to be 34%. Thus, the composition of compound 1 in the plant material is 0.7% (dry weight), a very abundant secondary metabolite in the leave of J. insularis.

Hela cells = system: Hela cells; parameters: method as in PMID 32213364; settings: from the leaves of Casearia kurzii; read-out: IC50 against Hela cells; cited from earlier work
[10] = Homo sapiens, OVCAR-4, 72 h, mean ± SEM, read-out: growth inhibitory activity, IC50, OVCAR-4
[11] = Homo sapiens, OVCAR-4, 72 h, same IC50 given in μg/mL, read-out: growth inhibitory activity, IC50, OVCAR-4, in parentheses (converted)
[12] = Homo sapiens, OVCAR-8, SRB, 72 h, mean ± SEM, read-out: growth inhibitory activity, IC50, OVCAR-8
[13] = Homo sapiens, OVCAR-8, SRB, 72 h, same IC50 given in μg/mL, read-out: growth inhibitory activity, IC50, OVCAR-8, in parentheses (converted)
[14] = Homo sapiens, mean ± SEM, read-out: growth inhibitory activity, IC50, HOE
[15] = Homo sapiens, same IC50 given in μg/mL, read-out: growth inhibitory activity, IC50, HOE, in parentheses (converted)

Molecule | IC50 (OVCAR-4 cells; [10]) | IC50 (OVCAR-4 cells; [11]) | IC50 (OVCAR-8 cells [1]; [12]) | IC50 (OVCAR-8 cells [1]; [13]) | SI against OVCAR-8 (OVCAR-8 cells [1]) | IC50 [2, 14] | IC50 [2, 15] | cytotoxic activity against HOE cells [2] | IC50 ([3]; Homo sapiens) | IC50 [3] | caspase 3/7 activities [4] | caspase 3/7 activities [5] | other results
CC1=CCC[C@@H]2[C@@](C)(CCC3=CC(=O)OC3O)[C@H](C)CC[C@@]12C (mixture of isomers) [Compound 1, 16(α/β)-hydroxy-cleroda-3,13(14)Z-dien-15,16-olide] | 5.7 ± 0.3 µM | 1.8 µg/mL | 4.4 ± 0.2 µM | 1.4 µg/mL | 3 | 12.1 ± 0.1 µM | 3.9 µg/mL | less cytotoxic activity | 4 to 6 µM | < 6 µM | significantly increased | significantly increased | IC50 (OVCAR-8 cells [1]; Homo sapiens, OVCAR-8, Figure S1 scheme, read-out: IC50 in OVCAR-8 (Figure S1)): 1.42 µg/mL; caspase 8 activity [6]: increased; caspase 9 activity [7]: increased; percentage of early and late apoptosis (OVCAR-8 cells [8]): concentration-dependent and significant increase; thermal stability, HPLC after heating ([9]; 200 °C for 0.5 h followed by HPLC analysis): formation of new products; thermal stability ([9]; at a high temperature): thermally unstable
N.N.O=C([O-])C1(C(=O)[O-])CCC1.[Pt+2] [Carboplatin, carboplatin, reference compound] | – | – | – | – | 1.6 | – | – | – | – | 8 to 18 µM | – | – | IC50 (OVCAR-4 cells; 72 h, mean ± SEM, read-out: growth inhibitory activity, IC50, OVCAR-4): 17.6 ± 4.6 µM; IC50 (OVCAR-8 cells [1]; SRB, 72 h, mean ± SEM, read-out: growth inhibitory activity, IC50, OVCAR-8): 8.2 ± 2.2 µM; IC50 ([2]; mean ± SEM, read-out: growth inhibitory activity, IC50, HOE): 13 ± 3.7 µM
CC1=CCC[C@@H]2[C@@](C)(CC/C(C=O)=C\C(=O)O)[C@H](C)CC[C@@]12C [Compound 2, 16-oxo-cleroda-3,13(14)E-dien-15-oic acid] | 16.6 ± 2.8 µM | 5.3 µg/mL | 11.8 ± 0.5 µM | 3.8 µg/mL | 2 | 22.8 ± 0.7 µM | 7.3 µg/mL | less cytotoxic activity | 12 to 17 µM | – | significantly increased | significantly increased | –
Kurzipene B | – | – | – | – | – | – | – | – | – | – | – | – | IC50 (Hela cells): 5.3 µM
